The numbers were not newly measured in publication PMC10893061, “Novel 2,5-Diketopiperazines with In Vitro Activities against Protozoan Parasites of Tropical Diseases” (Pharmaceuticals, 2024), which cites them from elsewhere.

For data set [1], the system named is Plasmodium. Details: method as in PMID 28223778. Particulars: cited from earlier work.
Data set [2] has as its system Plasmodium. Also noted: method as in PMID 33446930, PMID 33307212. Particulars: read-out: IC50 plasmodicidal in vitro activity; cited from earlier work.
Data set [3] has as its system Plasmodium. Details: method as in PMID 33446930, PMID 33307212. Particulars: 30mg/(kg × day), 4-day suppressive test; cited from earlier work.
For data set [4], the system named is human and monkey cell lines. Details: method as in PMID 14513908. Particulars: cited from earlier work.
The next data set relates to P. falciparum. Details: method as in PMID 14513908. Particulars: cited from earlier work.

Take `CC(C)C[C@@H]1NC(=O)[C@@H]2CCCN2C1=O` [Gancidin W]: the “in vivo anti-malarial activity” value in the data set on Plasmodium [1] was “active, low-toxic”.

The term IC50 denotes the concentration at which inhibition is half-maximal. For `CO[C@]1(CC(C)C)NC(=O)[C@](O)(Cc2ccccc2)NC1=O` [Diatretol], the IC50 in the data set on Plasmodium [2] was 0.6 µM. Moreover, the “growth inhibition of the parasite in vivo” value in the data set with Plasmodium [3] is “more than 50%”.

In the case of `CN1C(=O)C2(CO)NC(=O)C1(Cc1ccccc1)SSSS2` (centres unmarked) [1-demethylhyalodendrin tetrasulfide], the cytotoxicity result in data set [4] was “high cytotoxicity”. The IC50 with P. falciparum is 6.7 µM.
